Values joined by “and” are separate entries in the source; they are usually repeats but may differ in a detail not shown here. Equal values may be shown once.
Assays:
[1] = system: OVASAHO cells; assay: Cell viability, cell counting kit-8 (CCK-8); assay type: cell-based; conditions: 2 μM for 1 hr, then 72 hrs in fresh medium
Description: Cell viability. The cell viability of CypH-11 and CypH-1 were evaluated using the cell counting kit-8 (CCK-8) from Dojindo (Rockville, MD). OVASAHO cells (5.0×10^3) were seeded on a 96-well plate and cultured for 24 hrs. Then the cells were treated with CypH-11 (2 μM) and CypH-1 (2 μM) for 1 hr. After replacing the medium with fresh cell culture medium, the cells were incubated for another 72 hrs. The cell viability was examined by treating them with CCK-8 solution for 3 hrs and reading the absorbance at 450 nm using a plate reader.

[2] = pKa measurement by fluorescence intensity in the pH range 2.0-11.0 (plate reader); assay type: physicochemical; conditions: for pKa: 2 μM in 20 mM phosphate-buffered solution, pH 2.0-11.0, λex=725 nm, λem=785 nm; for pH dependency of fluorescence: different pH solutions
Description: (A) The structure of CypH-1 (B) Schematic diagram of the fluorescence activation of CypH-11 by protonation. […] Their fluorescence intensity in the pH range (2.0-11.0) was measured (λex=725 nm and λem=785 nm) using a plate reader. (D) Fluorescence image of CypH-11 and CypH-1 in a 96-well plate at different pHs.
Spectroscopic analysis. Stock solutions (1 mM in DMSO) of CypH-11, CypH-1, and Cy7 were stored at a −30° C. freezer and used for the following experiments. For the pKa measurement, the respective compound was diluted in 20 mM phosphate-buffered solution (PBS, pH 2.0-11.0) to a final concentration of 2 μM. The fluorescence intensity (λex=725 nm and λcm=785 nm) was measured on a plate reader (Tecan Infinite M1000 Pro), and the fluorescence images were recorded with a fluorescence imaging system (Bruker In-vivo F Pro). For the quantum yield measurement, indocyanine green (ICG, Φ=1.2% in water) was used as the standard compound. The respective compound (0.4, 0.8, 1.2, 1.6, and 2.0 μM) in PBS solutions (pH=4.0 and pH=7.4) was measured using a Cary 60 UV-Vis spectrophotometer and Cary Eclipse fluorescence spectrophotometer (Agilent). The slope of fluorescence vs absorbance was compared with that of ICG to calculate the relative quantum yield.

[3] = Fluorescence properties of the CypH dyes at pH 5.0 and pH 7.5 (Table 2); assay type: physicochemical; conditions: for Ratio Intensity pH 5.0/7.5: fluorescence intensity pH 5.0 over pH 7.5
From the text: The excitation and emission maxima of CypH-1 are 760 and 777 nm, respectively. The signal intensity ratio of pH 5 over pH 7.5 was about 10. The meso-bridge ring size, lipophilicity and electro-density of CypH-1 was modified to provide better optical property. […] The best compound from this group was CypH-5 whose fluorescence ratio of pH 5.0/pH 7.5 was increased to 22. Based on this initial structure and property relationship, the second round of 10 new analogs were designed using CypH-5 as the core, focusing on modifying the electron density on the aniline ring and the indolinium ring. Various alkyl groups, such as methyl, ethyl, propyl, isopropyl and their combinations, were applied to these two positions.
The CypH analogs with other longer alkyl chains had much lower background fluorescence. […] Among them, CypH-11, which has a methyl isopropyl aniline and an isopropyl group on the indolinium ring, gave a 112-fold enhancement in fluorescence signal. CypH-11 has absorbance and emission maxima at 766 nm and 785 nm, respectively (FIG. 4) and was selected as the lead compound (vide infra).

[4] = Solubility of the CypH dyes (Table 1); assay type: physicochemical; conditions: organic solvent or mixture; in EtOH; read-out: Solubility
Description: (§1) Characterization: All new CypH dyes were characterized by proton NMR and mass spectrometry to confirm identity. NMR data was consistent with the structure and mass spectrometry results gave the expected mass of the dye±0.5 amu. An HPLC method was developed (see below) and used to assess dye purity. […] Retention times on the column generally correlated with lipophilicity of the dyes with water soluble dyes containing sulfate groups eluting out earlier (@10.6 min for CypH-3, 6, 9) than CypH-1 (@11.9 min) and the more lipophilic dyes later. Optical properties of the dyes, acid dissociation constants and solubilities were also determined. Synthetic intermediates were also characterized by proton NMR.

[5] = Absorbance and fluorescence spectra (excitation/emission maxima); assay type: physicochemical
[6] = Optical properties of the CypH dyes: absorbance maximum and extinction coefficient in EtOH (Table 1); assay type: physicochemical; conditions: for Ex Coeff (M^−1cm^−1) @ Abs Max: at absorbance maximum
Description: as §1

[7] = conditions not stated, previously published lead probe

Structure (SMILES): CN(C)c1ccc(OC2=C(/C=C/C3=[N+](C)c4ccccc4C3(C)C)CCC/C2=C\C=C2\N(C)c3ccccc3C2(C)C)cc1.[Cl-] [CypH-1, reference compound]
- cell viability [1]: 95.5±6.9%
- pKa [2]: 4.7
- pH dependency of fluorescence [2]: low fluorescence in neutral and basic solutions, but strong fluorescence in acidic solutions
- Ratio Intensity pH 5.0/7.5 [3]: about 10
- Ratio Intensity pH 5.0/7.5 ([3]; listed as 1): 10.1
- FL Intensity pH 5.0 [3]: 3363
- FL Max (nm) pH 5.0 [3]: 787 nm
- FL Intensity pH 7.5 [3]: 334
- FL Max (nm) pH 7.5 [3]: 782 nm
- Solubility [4]: > 1000 µM
- emission maximum [5, 7]: 777 nm
- excitation maximum [5, 7]: 760 nm
- Ex Coeff (M^−1cm^−1) @ Abs Max [6]: 74,450 M^−1cm^−1
- Abs. Max (nm) in EtOH [6]: 760 nm

Structure (SMILES): CC(C)N(C)c1ccc(OC2=C(/C=C/C3=[N+](C(C)C)c4ccccc4C3(C)C)CCC/C2=C\C=C2\N(C(C)C)c3ccccc3C2(C)C)cc1.[I-] [CypH-11]
- cell viability [1]: 91.0±4.6%
- pKa [2]: 6
- normalized fluorescence relative to that of CypH-1 ([2]; at pH 6.0-6.5, in solution): about 3.4 fold
- pH dependency of fluorescence [2]: low fluorescence in neutral and basic solutions, but strong fluorescence in acidic solutions
- Ratio Intensity pH 5.0/7.5 [3]: 112
- Ratio Intensity pH 5.0/7.5 ([3]; listed as 11): 111.7
- FL Intensity pH 5.0 [3]: 5028
- FL Max (nm) pH 5.0 [3]: 790 nm
- FL Intensity pH 7.5 [3]: 45
- FL Max (nm) pH 7.5 [3]: 785 nm
- Solubility [4]: > 1000 µM
- Emmax / emission maximum ([5]; 2 μM, pH 5.0 phosphate buffer): 785 nm
- Exmax / absorbance maximum ([5]; 2 μM, pH 5.0 phosphate buffer): 766 nm and 765 nm
- Ex Coeff (M^−1cm^−1) @ Abs Max [6]: 233,800 M^−1cm^−1
- Abs. Max (nm) in EtOH [6]: 771 nm
